Experimental data as given in patent US8940863B2, “Selective anticancer chimeric peptides which bind neuropilin receptor” (Stella Pharma Corporation, priority 2008, dated 2015).
Where two headings read alike, the source gives them in different places. Values belong to the molecule of their own block, whether it stands above or below them. Non-standard residues stand in square brackets, D forms with d. Residues, ends and D or L forms follow the SMILES beside them. No end group written: not given here.

Tests used:
[1] = system: PE cell (pancreatic epidermal); assay: Cell viability assay (WST-8); format: cell-based
From the text: (§1) Correlation between IC50 values was observed.

T47D = assay: Cell viability assay (WST-8); format: cell-based, human
From the text: as §1

SU.86.86 = conditions: for IC50: 48 h
H322 = conditions: H322; 72 hours
[2] = molecular target: recombinant human EGF receptor (rhEGFR) (Homo sapiens, UniProt P00533); assay: BIACORE binding to EGFR protein
Experimental: Surface plasmon resonance (SPR) experiments were performed with a BIACORE biosensor system 3000 (BIACORE Inc., Uppsala, Sweden). About 5000 RU of streptavidin (Sigma) was immobilized on the surface of CM5 sensor chips via N-hydroxysuccinimide and N-ethyl-N′-(dimethylaminopropyl) carbodiimide activation chemistry, and then 2000-3000 RU of peptide conjugated with biotin were injected over the streptavidin-immobilized sensor chip. As a control of nonspecific binding, the unreacted carboxymethyl groups of a sensor chip without immobilized streptavidin were blocked with ethanolamine. As an analyte, cell surface proteins which were prepared using the Mem-PER eukaryotic membrane protein extraction reagent kit (Pierce) were injected over the flow-cell in the flow rate of […]. at 25° C. […] All protein concentrations used in these experiments were determined by the Bradford method (Bradford M M. A rapid and sensitive method for the quantitation of microgram quantities of protein utilizing the principle of protein-dye binding. Anal Biochem 1976; 72:248-54). […]
Among the aforementioned mutated peptides, first, paying attention to the second H which has charge, K- and R-mutants were chemically synthesized. As described in Example 1, using BIACORE, binding affinity with recombinant human EGFR was evaluated by comparison with that of wild-type EGFR-binding peptide. […]

MRC-5 = assay: Cell viability assay (WST-8)
HEK293T = format: cell-based
HuCCT-1 = conditions: 48 h
A172 = assay: Cell viability assay (WST-8); format: cell-based; conditions: 72 h
KCCT873 = assay: Cell viability assay (WST-8); format: cell-based; conditions: 72 h
U251 = conditions: 72 h
WI-38 = conditions: 72 h
[3] = system: HC cell (hepatocyte cell); assay: Cell viability assay (WST-8); format: cell-based, human; conditions: Human normal hepatocyte cell; 48 hours (Table 8); read-out: IC50
From the text: as §1

SU8686 = assay: Annexin V flow cytometry; format: cell-based, human; conditions: 10 μM, three hours at 37° C.
Experimental: SU8686 cells were incubated with Sema3A (363-377)-kLytic peptide (10 μM) for three hours at 37° C., and were analyzed for Annexin V labeling by dual-color flow cytometry.

IC50 (T47D; T47D breast cancer cells, 48 hours (Table 6), read-out: IC50): 12.5 µM
IC50 (BT-20; BT20 breast cancer cells, 48 hours (Table 6)): 38 µM
IC50 (BxPC-3; 48 h): 38.5 µM
IC50 (SU.86.86): 19.5 µM
IC50 (MDA-MB-231; 48 h): 29.6 µM
IC50 (CFPAC-1; CFPAC-1 cancer cells, 48 hours (Table 5)): 22.6 µM
IC50 (Panc-1; Panc-1 cancer cells, 48 hours (Table 5)): 28.2 µM
Molecule: CC(C)C[C@H](NC(=O)[C@H](CCCCN)NC(=O)[C@@H](CC(C)C)NC(=O)[C@H](CC(C)C)NC(=O)[C@H](CCCCN)NC(=O)[C@H](CCCCN)NC(=O)[C@H](CC(C)C)NC(=O)[C@@H](CC(C)C)NC(=O)[C@@H](CCCCN)NC(=O)[C@H](CCCCN)NC(=O)[C@H](CC(C)C)NC(=O)[C@H](CC(C)C)NC(=O)[C@@H](CCCCN)NC(=O)[C@H](CC(C)C)NC(=O)[C@@H](N)CC(C)C)C(=O)O [nLytic, LLKLLKKLLKKLLKL] (H-LL[dK]LLK[dK][dL]LKKL[dL]KL-OH; N-terminus and C-terminus assumed)
IC50 ([1]; Pancreatic epithelium normal cells, 48 hours (Table 5), read-out: IC50): > 50 µM

IC50 (T47D; 48 h): 3.7 µM
IC50 (BT-20; 48 h): 11.4 µM
IC50 (BxPC-3; 48 h): 14.7 µM
IC50 (SU.86.86): 8 µM
IC50 (MDA-MB-231; 48 h): 8.1 µM
IC50 (SK-BR-3; 48 h): 14.5 µM
IC50 (CFPAC-1; 48 h): 9.2 µM
IC50 (Panc-1; 48 h): 14.1 µM
IC50 (HuCCT-1): 7.9 µM
Molecule: CC(C)C[C@H](NC(=O)[C@H](CCCCN)NC(=O)[C@@H](CC(C)C)NC(=O)[C@H](CC(C)C)NC(=O)[C@H](CCCCN)NC(=O)[C@H](CCCCN)NC(=O)[C@H](CC(C)C)NC(=O)[C@@H](CC(C)C)NC(=O)[C@@H](CCCCN)NC(=O)[C@H](CCCCN)NC(=O)[C@H](CC(C)C)NC(=O)[C@H](CC(C)C)NC(=O)[C@@H](CCCCN)NC(=O)[C@H](CC(C)C)NC(=O)[C@H](CC(C)C)NC(=O)CNC(=O)CNC(=O)[C@H](CCCNC(=N)N)NC(=O)[C@@H]1CCCN1C(=O)[C@H](Cc1ccc(O)cc1)NC(=O)[C@@H]1CCCN1C(=O)[C@@H](NC(=O)[C@H](CCCNC(=N)N)NC(=O)CN)C(C)C)C(=O)O [Sema3A(aa371-377)-nLytic] (H-GRVPYPRGGLL[dK]LLK[dK][dL]LKKL[dL]KL-OH; N-terminus and C-terminus assumed)
IC50 ([1]; 48 h): > 50 µM
IC50 (HEK293T; 48 h): > 20 µM

IC50 (U251): 6.6 ± 0.4 µM
IC50 (BxPC-3; 72 h): 6.8 ± 0.3 µM
IC50 (MDA-MB-231; 72 h): 5.7 ± 0.4 µM
Molecule: CC[C@H](C)[C@H](NC(=O)[C@H](CC(C)C)NC(=O)[C@H](CCC(N)=O)NC(=O)[C@@H](N)CCCCN)C(=O)N[C@@H](CCCNC(=N)N)C(=O)N[C@@H](Cc1ccccc1)C(=O)N[C@@H](CC(C)C)C(=O)N[C@@H](CCCCN)C(=O)N[C@@H](CCCNC(=N)N)C(=O)N[C@@H](CC(C)C)C(=O)N[C@@H](CC(=O)O)C(=O)N[C@@H](CCCNC(=N)N)C(=O)N[C@@H](CC(N)=O)C(=O)NCC(=O)NCC(=O)NCC(=O)N[C@@H](CCCCN)C(=O)N[C@@H](CC(C)C)C(=O)N[C@H](CC(C)C)C(=O)N[C@@H](CC(C)C)C(=O)N[C@@H](CCCCN)C(=O)N[C@H](CC(C)C)C(=O)N[C@@H](CC(C)C)C(=O)N[C@H](CCCCN)C(=O)N[C@H](CCCCN)C(=O)N[C@@H](CC(C)C)C(=O)N[C@@H](CC(C)C)C(=O)N[C@@H](CCCCN)C(=O)N[C@H](CC(C)C)C(=O)N[C@@H](CC(C)C)C(=O)N[C@@H](CCCCN)C(=O)N[C@@H](CCCCN)C(=O)N[C@@H](CCCCN)C(=O)O [IL4-lytic (L, D)] (H-KQLIRFLKRLDRNGGGKL[dL]LK[dL]L[dK][dK]LLK[dL]LKKK-OH; N-terminus and C-terminus assumed)
IC50 ([1]; PE normal cells, 72 hours, Mean ± SD (Table 4), read-out: IC50): > 20 µM
IC50 (HEK293T; 72 h): 14.2 ± 1.3 µM
IC50 (A172): 6.8 ± 0.4 µM
IC50 (KCCT873): 5.9 ± 0.6 µM
IC50 (WI-38): 16.1 ± 0.5 µM

The remaining lines, values behind:

Molecule: YHWYGYTPQNVIGGGLKLLKKLLKKLLKLL-NH2 (YHWYGYTPQNVIGGGLK[dL]LK[dK]L[dL][dK]KLL[dK]LL-NH2; N-terminus assumed; SMILES CC[C@H](C)[C@H](NC(=O)[C@@H](NC(=O)[C@H](CC(N)=O)NC(=O)[C@H](CCC(N)=O)NC(=O)[C@@H]1CCCN1C(=O)[C@@H](NC(=O)[C@H](Cc1ccc(O)cc1)NC(=O)CNC(=O)[C@H](Cc1ccc(O)cc1)NC(=O)[C@H](Cc1c[nH]c2ccccc12)NC(=O)[C@H](Cc1c[nH]cn1)NC(=O)[C@@H](N)Cc1ccc(O)cc1)[C@@H](C)O)C(C)C)C(=O)NCC(=O)NCC(=O)NCC(=O)N[C@@H](CC(C)C)C(=O)N[C@@H](CCCCN)C(=O)N[C@H](CC(C)C)C(=O)N[C@@H](CC(C)C)C(=O)N[C@@H](CCCCN)C(=O)N[C@H](CCCCN)C(=O)N[C@@H](CC(C)C)C(=O)N[C@H](CC(C)C)C(=O)N[C@H](CCCCN)C(=O)N[C@@H](CCCCN)C(=O)N[C@@H](CC(C)C)C(=O)N[C@@H](CC(C)C)C(=O)N[C@H](CCCCN)C(=O)N[C@@H](CC(C)C)C(=O)N[C@@H](CC(C)C)C(N)=O) [EB-original lytic peptide]
cell-killing effect of chimeric peptide compared with lytic moiety alone (H322): did not show enhancement of cytotoxic activity

Molecule: YKWYGYTPQNVI (EGFR binding peptide) [K-substituted peptide]
biosensor response compared with wild-type EGFR-binding peptide [2]: some enhancement of biosensor response

Molecule: YHWYGYTPQNVIGGGLKLLKKLLKKLLKLL-NH2 (C-terminal amide; EB-original Lytic peptide; position 18, 21, 23, 24 and 28 are D-amino acids, and -CONH2 is existing at C-terminal.)
cytotoxicity to normal cell line MRC-5 (MRC-5; MRC-5, 72 hours): killed even normal cell line (MRC-5) at lower concentration

Molecule: NYQWVPYQGRVPYPRGGGKLLLKLLKKLLKLLKKK (Sema3A-lyticL chimeric peptide)
cell-killing effect compared with LyticL alone (SU.86.86; SU86.86, 72 hours): cell-killing effect was enhanced
cell-killing effect compared with LyticL alone (SK-BR-3; SKBR3, 72 hours): cell-killing effect was enhanced

Molecule: YRWYGYTPQNVI (EGFR binding peptide) [R-substituted peptide]
biosensor response compared with wild-type EGFR-binding peptide [2]: response of two fold of wild-type

Molecule: CC(C)C[C@H](NC(=O)[C@H](CC(C)C)NC(=O)[C@@H](CCCCN)NC(=O)[C@@H](CCCCN)NC(=O)[C@H](CC(C)C)NC(=O)[C@@H](CC(C)C)NC(=O)[C@H](CCCCN)NC(=O)[C@H](CC(C)C)NC(=O)[C@@H](CC(C)C)NC(=O)[C@H](CC(C)C)NC(=O)[C@H](CCCCN)NC(=O)CNC(=O)CNC(=O)CNC(=O)[C@H](CCCNC(=N)N)NC(=O)[C@@H]1CCCN1C(=O)[C@H](Cc1ccc(O)cc1)NC(=O)[C@@H]1CCCN1C(=O)[C@@H](NC(=O)[C@H](CCCNC(=N)N)NC(=O)CNC(=O)[C@H](CCC(N)=O)NC(=O)[C@H](Cc1ccc(O)cc1)NC(=O)[C@@H]1CCCN1C(=O)[C@@H](NC(=O)[C@H](Cc1c[nH]c2ccccc12)NC(=O)[C@H](CCC(N)=O)NC(=O)[C@H](Cc1ccc(O)cc1)NC(=O)[C@@H](N)CC(N)=O)C(C)C)C(C)C)C(=O)N[C@@H](CCCCN)C(=O)N[C@H](CC(C)C)C(=O)N[C@@H](CC(C)C)C(=O)N[C@@H](CCCCN)C(=O)N[C@@H](CCCCN)C(=O)N[C@@H](CCCCN)C(=O)O [Sema3A(aa363-377)-kLytic] (H-NYQWVPYQGRVPYPRGGGKL[dL]LK[dL]L[dK][dK]LLK[dL]LKKK-OH; N-terminus and C-terminus assumed)
IC50 ([1]; Pancreatic epidermal cell, normal cells, 48 hours (Table 8), read-out: IC50): > 20 µM
IC50 [3]: 37.5 µM
Annexin V-positive dead cells (SU8686; listed as Sema3A (363-377)-kLytic): increased
Annexin V-positive dead cells (SU8686; listed as Sema3A(363-377)-kLytic): induces Annexin V-positive expression
IC50 (BxPC-3; 48 h): 5.7 ± 2.3 µM
IC50 (SU.86.86): 5.2 ± 0.4 µM
IC50 (CFPAC-1; 48 h): 6.7 ± 0.1 µM
IC50 (Panc-1; 48 h): 13 ± 2.7 µM
IC50 (MRC-5; MRC-5 normal cells, 48 hours (Table 8)): > 50 µM
